Target: Eukaryotic peptide chain release factor GTP-binding subunit ERF3A (Homo sapiens, UniProt P15170)
Sequence (P15170 whole entry): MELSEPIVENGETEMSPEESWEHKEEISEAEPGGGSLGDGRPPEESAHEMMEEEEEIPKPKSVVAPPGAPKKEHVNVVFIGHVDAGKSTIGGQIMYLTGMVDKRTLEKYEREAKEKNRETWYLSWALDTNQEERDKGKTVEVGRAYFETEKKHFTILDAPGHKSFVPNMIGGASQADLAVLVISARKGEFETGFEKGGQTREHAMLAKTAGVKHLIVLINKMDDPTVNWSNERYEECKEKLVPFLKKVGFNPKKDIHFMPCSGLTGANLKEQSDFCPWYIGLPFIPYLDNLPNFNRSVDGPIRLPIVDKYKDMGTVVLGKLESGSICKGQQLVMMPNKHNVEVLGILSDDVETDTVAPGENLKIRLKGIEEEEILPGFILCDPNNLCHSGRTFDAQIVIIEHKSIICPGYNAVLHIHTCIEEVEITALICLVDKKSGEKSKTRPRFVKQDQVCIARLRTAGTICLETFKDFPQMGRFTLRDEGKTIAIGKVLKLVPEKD

## CN[C@H]1CC=CC[C@@H]1N(C)c1ccc2c(c1)CN(C1CCC(=O)NC1=O)C2=O (stereo partly specified)
  EC50: > 50 µM

Reference: ChEMBL document CHEMBL5728835, “3-(5-amino-1-oxoisoindolin-2-yl)piperidine-2,6-dione derivatives and uses thereof” (2021)
